Test results taken from patent publication US20160061919A1, “IMAGING OF CREATINE KINASE ENZYME EXPRESSION IN CANCEROUS TISSUES” (Sidra Medical and Research Center, priority 2014, published 2016).

How the values were obtained:
[1] = system: creatine kinase (CK) expression in cancer cells; assay: CEST imaging of cancer cells cultured with PCr; format: cell-based; details: cancer cell line cultured with PCr for 1 hour; FIG. 2
From the text: (§1) In certain embodiments, the radio frequency (RF) pulse can be provided at different frequency offsets. In certain embodiments, to detect the conversion of phosphocreatine to creatine, an RF pulse was applied at a frequency offset of about 1.8 ppm for a period of about 1 to about 3 seconds.
The creatine kinase (CK) expression in cancer cells cleaves the PCr into creatine (Cr), and can be responsible for the increase in CEST contrast from creatine amine protons.

[2] = system: CK enzyme expressed in the tumor; assay: in vivo imaging of creatine kinase expression by monitoring conversion of PCr to Cr through CEST; details: 60 minutes following tail vein injection of PCr, versus base line CEST map, FIG. 3
Procedure: as §1
“b” is the base line CEST map from the same slice. “c” is a CEST map of the same slice at 60 minutes following tail vein injection of PCr.

`CN(CC(=O)O)C(=N)NP(=O)(O)O` [PCr, phosphocreatine] was tested, and the “elevation of the CEST contrast over cancer cells without PCr” value [1] was “about 16%” and the “increase in CEST contrast” value [2] was “about 11%”.
